{
  "source": "patent US20250032487A1",
  "about": "“DISSOLUTION TEST” (JANSSEN SCIENCES IRELAND UNLIMITED COMPANY, priority 2021, published 2025)",
  "assay": "In vitro dissolution test, paddle apparatus (USP type 2), polysorbate 20 in 0.05 M sodium phosphate buffer pH 7.4",
  "type": "physicochemical",
  "method": "The dissolution of the suspensions was tested using a paddle apparatus (USP type 2, Ph. Eur, JP) with a rotation speed of 50 rpm in 900 mL 6.0% w/v polysorbate 20 in 0.05 M sodium phosphate buffer pH 7.4 at 5° C. The sample amount corresponds to 18 mg rilpivirine.\nAfter 360 minutes the temperature was increased to 37° C. and maintained for 60 minutes to simulate an infinity time point. The samples taken after the temperature infinity time points are labelled as 420 minutes.\nThe quantity of dissolved drug substance was determined by a gradient ultra-high performance liquid chromatographic (UHPLC) method with UV detection at 280 nm.\nThe dissolution of the three rilpivirine suspensions in water was performed using Paddle Apparatus (USP type 2, Ph.Eur., JP.) at 50 rpm in 900 mL of 6.0% w/v Polysorbate 20 in 0.05 M Sodium Phosphate buffer pH 7.4, at 5.0±0.5° C. An amount of 64.98 mg (=0.06 mL×1.083 g/mL (the theoretical density of the suspension))±5% of homogeneous suspension of rilpivirine (corresponding to 18±0.9 mg of rilpivirine) was added.\nThe determination of the quantity of rilpivirine present in the dissolution samples is based upon a gradient ultra-high performance liquid chromatographic (UHPLC) method with UV detection at 280 nm.\nThe dissolution of a suspension of nanoparticulate rilpivirine having a Dv50 of ˜200 nm was tested using the method of Example 1 but with different temperatures of the dissolution medium (37° C., 25° C., 15° C., and 5° C.).\nThe dissolution of a suspension of nanoparticulate rilpivirine having a Dv50 of 218 nm was tested using the method of Example 1 but with different concentrations of the surfactant (1-6% w/v polysorbate 20).",
  "key": {"[1]": {"conditions": "Example 4, nanoparticulate suspension Dv50 ~200 nm, 5° C., 6.0% w/v polysorbate 20, pH 7.4"}, "[2]": {"conditions": "Example 5, nanoparticulate suspension Dv50 218 nm, 6% polysorbate 20, 5° C., pH 7.4"}},
  "data": [
    {"smiles": "Cc1cc(/C=C/C#N)cc(C)c1Nc1ccnc(Nc2ccc(C#N)cc2)n1", "note": "[rilpivirine, 4-[[4-[[4-[(1E)-2-cyanoethenyl]-2,6-dimethylphenyl]amino]-2-pyrimidinyl]amino]benzonitrile]", "values": [
      {"measurement": "% dissolved after 6 hours", "setting": "[1]", "value": "Over 85%"},
      {"measurement": "% dissolved at 5 minutes", "setting": "[1]", "value": "less than 30%"},
      {"measurement": "time until fully dissolved", "setting": "Example 4, nanoparticulate suspension Dv50 ~200 nm, 37° C., 6.0% w/v polysorbate 20, pH 7.4, 50 rpm, 900 mL", "value": "around 10 minutes"},
      {"measurement": "delta % dissolved (difference between lowest and highest % dissolved in the dissolution profile)", "setting": "Example 5, 6% polysorbate 20 method, suspension Dv50 218 nm, 5° C.", "value": "approximately 80%"},
      {"measurement": "% dissolved after 360 minutes", "setting": "[2]", "value": "more than 85%"},
      {"measurement": "initial release, % dissolved", "setting": "[2]", "value": "below 20%"}
    ]}
  ]
}
